From patent publication US5811078A, “Spray formulations of antihyperalgesic opiates and method of treating topical hyperalgesic conditions therewith” (Adolor Corporation, priority 1997, dated 1998)
Where a name gives a salt, the structure may show the parent alone. Read-outs that look alike come from different tables or passages of the source.

Columns and labels:
[1] = Peripheral selectivity: ratio of ED50 in the tail-withdrawal assay over ED50 in the anti-diarrheal (castor oil) assay; assay type: in vivo, female Wistar rats
Excerpt: The cut off time is 15 seconds. […] After each determination the tail is carefully dried.
Each animal is kept in an individual cage.

central nervous system = settings: reported prior use, antidiarrheal formulations, hydrochloride, cited from earlier work

Row | SMILES | Peripheral Selectivity (ED50tw/ED50 Castor Oil) ([1]; po) | other results
1 | O=C(N1CCOCC1)C(CCN1CCC(O)(c2cccc(C(F)(F)F)c2)CC1)(c1ccccc1)c1ccccc1 [Compound 10] | > 251 | –
2 | O=C(N1CCCC1)C(CCN1CCC(O)(c2ccccc2)CC1)(c1ccccc1)c1ccccc1 [Compound 9, 1-[4-(4-Hydroxy-4phenyl-1piperidino)-2,2-diphenylbutyryl]pyrrolidine] | 437 | –
3 | CCN(C)C(=O)C(CCN1CCC(O)(c2ccc(Cl)cc2)CC1)(c1ccccc1)c1ccccc1 [Compound 2, 4-(p-Chlorophenyl)-4-hydroxy-N-ethyl-N-methyl-ααdiphenyl-1-piperidinebutyramide] | ≥ 1,231 | –
4 | O=C(N1CCCC1)C(CCN1CCC(O)(c2ccc(Cl)cc2)CC1)(c1ccccc1)c1ccccc1 [Compound 5, 1-{4-[(4-Chlorophenyl)4-hydroxy-1-piperidino]-2,2-diphenylbutyryl}pyrrolidine] | 593 | –
5 | O=C(N1CCCC1)C(CCN1CCC(O)(c2ccc(Cl)c(Cl)c2)CC1)(c1ccccc1)c1ccccc1 [Compound 4] | – | Peripheral Selectivity (ED50tw/ED50 Castor Oil) ([1]; oral, rats, tail withdrawal ED50 over castor oil test ED50 (both mg/kg)): > 640
6 | CN(C)C(=O)C(CCN1CCC(O)(c2ccc(Cl)c(C(F)(F)F)c2)CC1)(c1ccccc1)c1ccccc1 [Compound 8, 4-(4-Chloro3-trifluoromethyl-phenyl)-4-hydroxy-N,N-dimethyl-αα-diphenyl-1-piperidinebutyramide] | 467 | –
7 | CN(C)C(=O)C(CCN1CCC(O)(c2ccc(F)cc2)CC1)(c1ccccc1)c1ccccc1 [Compound 7, 4-(p-Fluorophenyl)-4-hydroxy-N,N-dimethyl-αα-diphenyl-1-piperidinebutyramide] | 500 | –
8 | CN(C)C(=O)C(CCN1CCC(O)(c2ccc(Br)cc2)CC1)(c1ccccc1)c1ccccc1 [Compound 3, 4-(p-Bromophenyl)-4-hydroxy-N,N-dimethyl-αα-diphenyl-1-piperidinebutyramide] | 800 | –
9 | CN(C)C(=O)C(CCN1CCC(O)(c2ccc(Cl)cc2)CC1)(c1ccccc1)c1ccccc1 [Compound 6, 4-(p-Chlorophenyl)-4-hydroxy-N,N-dimethyl-αα-diphenyl-1-piperidinebutyramide] | 533 | –
10 | CN(C)C(=O)C(CCN1CCC(O)(c2ccc(Cl)cc2)CC1)(c1ccccc1)c1ccccc1 [loperamide, 4-(p-chlorophenyl)-4-hydroxy-N-N-dimethyl-αα-diphenyl-1-piperidinebutyramide hydrochloride] | – | CNS effects (central nervous system): devoid of CNS effects; CNS effects (central nervous system; listed as Loperamide HCl): completely free of the undesirable CNS effects
